Assay results from patent publication US20090099150A1, “Methotrexate Combinations For Treating Inflammatory Diseases” (priority 2005, published 2009).

Tests used:
TNF-α = assay: Plasma TNF-α level (ELISA) at 35 days in collagen-induced arthritis; format: in vivo, Lewis rats; details: CIA rats, day 35
Description: (§1) Animals were randomly divided into sixth groups (n=10 for each group); (1) Sham group receiving intraperitoneally 26 mM sodium bicarbonate buffer at pH 8.1-8.3 which constituted the vehicle for M40403; (2) CIA group which constituted rats subjected to collagen induced arthritis as described below; (3) CIA+M40403 (2 mg/kg) group in which rats subjected to collagen-induced arthritis received M40403 at 2 mg/kg i.p. every 24 h, starting from day 25; (4) CIA+MET (0.015 mg/kg) group in which rats subjected to collagen-induced arthritis received orally, methotrexate at 0.015 mg/kg starting from day 25; (5) CIA+MET (0.15 mg/kg) group in which rats subjected to collagen-induced arthritis received orally, methotrexate at 0.15 mg/kg starting from day 25; (6)
(§2) CIA+MET+M40403 group in which rats subjected to collagen-induced arthritis received methotrexate (0.015 mg/kg; orally) and with M4043 (2 mg/kg, i.p.) starting from day 25.
(§3) Collagen-induced arthritis was produced as follows. Bovine type II collagen was dissolved in 0.01 M acetic acid at a concentration of 2 mg/ml by stirring overnight at 4° C. Dissolved collagen was frozen at −70° C. until use. Complete Freund's adjuvant was prepared by the addition of Mycobacterium tuberculosis H37Ra at a concentration of 2 mg/ml. Before injection, the collagen was emulsified with an equal volume of complete Freund's adjuvant. Collagen-induced arthritis was elicited as previously described (Salvemini et al Arthritis & rheumatism 44:2909-2921, 2001). On day 1, Lewis rats were injected intradermally at the base of the tail with 100 μl of the emulsion (containing 100 μg of bovine type II collagen). On day 21, a second injection of type II collagen in complete Freund's adjuvant was administered.
(§4) TNF-α and IL-1β levels were evaluated in plasma at 35 days after the induction of arthritis. The assay was carried out by using a calorimetric, commercial kit (Calbaiochem-Novabiochem Corporation, USA). The ELISA has a lower detection limit of 5 pg/ml.

[1] = system: collagen-induced arthritis; assay: Hind paw volume by plethysmometry in collagen-induced arthritis; format: in vivo, Lewis rats; details: CIA rats, alone
[2] = Body weight gain in collagen-induced arthritis; format: in vivo, Lewis rats; details: CIA rats
Description: as §1, §2, §3

[3] = system: collagen-induced arthritis; assay: Radiography of hind paws at day 35; format: in vivo, Lewis rats; details: CIA rats; for protection from bone resorption / joint pathology (FIG. 4: histological damage score and radiograph score): alone; for radiographic bone resorption / joint pathology of hind paws: methotrexate 0.15 mg/kg orally
[4] = system: type II collagen induced arthritis; details: Salvemini et al., Arthritis & Rheumatism 44:2909-2921, 2001; cited from earlier work
IL-1β = assay: Plasma IL-1β level (ELISA) at 35 days in collagen-induced arthritis; format: in vivo, Lewis rats; details: CIA rats, day 35
Description: as §1, §2, §3, §4

[5] = system: collagen-induced arthritis; assay: Clinical assessment of collagen-induced arthritis (percent arthritic rats, arthritis index); format: in vivo, Lewis rats; details: CIA rats
inflammation = details: Salvemini et al., Science 286:304-306, 1999; cited from earlier work
[6] = system: collagen-induced arthritis; assay: Histological assessment of joint injury at day 35; format: in vivo, Lewis rats; details: CIA rats, methotrexate 0.15 mg/kg orally
[7] = methotrexate 0.015 mg/kg orally, alone
[8] = methotrexate 0.015 mg/kg orally

Structure (SMILES): [Cl-].[Cl-].[Mn+2].c1cc2nc(c1)CN[C@@H]1CCCC[C@H]1NCCN[C@@H]1CCCC[C@H]1NC2 [M40403]
- plasma level of TNF-α (TNF-α; M40403 2 mg/kg i.p., alone): No significant effect
- hind paw volume (paw edema) ([1]; M40403 2 mg/kg i.p.): attenuated the paw edema from day 30 to 35
- body weight gain ([2]; M40403 2 mg/kg i.p., alone): significantly attenuated the loss in body weight
- protection from bone resorption / joint pathology (FIG. 4: histological damage score and radiograph score) ([3]; M40403 2 mg/kg i.p.): No significant protection
- efficacy in an animal model of rheumatoid arthritis [4]: effective
- plasma level of IL-1β (IL-1β; M40403 2 mg/kg i.p., alone): No significant effect
- development of collagen-induced arthritis (percent of arthritic rats) ([5]; M40403 2 mg/kg i.p. every 24 h from day 25, alone): did not significantly altered the development of collagen-induced arthritis
- arthritis index ([5]; M40403 2 mg/kg i.p., alone): Neither M40403 (2 mg/kg) nor methotrexate. (0.015 mg/kg) treatment alone attenuated the arthritis index
- efficacy in animal models of inflammation (inflammation): effective

Structure (SMILES): CN(Cc1cnc2nc(N)nc(N)c2n1)c1ccc(C(=O)N[C@@H](CCC(=O)O)C(=O)O)cc1 [methotrexate, N-[4-[[(2,4-Diamino-6-pteridinyl)methyl]methylamino]benzoyl]-L-glutamic acid]
- plasma level of TNF-α (TNF-α; [7]): No significant effect
- plasma level of TNF-α (TNF-α; methotrexate 0.15 mg/kg orally): significantly lower
- hind paw volume (paw edema) [1, 8]: attenuated the paw edema from day 30 to 35
- hind paw volume (hind paw swelling) ([1]; methotrexate 0.15 mg/kg orally): continuously significant (P<0.001) suppression of hind paw swelling from day 26 to 35
- Emax at 0.15 mg/kg ([1]; Rattus norvegicus, po, 672 h, methotrexate 0.15 mg/kg orally, from day 28 to 35, read-out: maximal response, suppression of hind paw swelling): 70%
- histology of the paw: bone erosion and degree of arthritis (damage score) [6]: the bone erosion as well as the degree of arthritis were significantly reduced
- body weight gain [2, 7]: significantly attenuated the loss in body weight
- body weight gain ([2]; methotrexate 0.15 mg/kg orally): positively affected the weight gain
- protection from bone resorption / joint pathology (FIG. 4: histological damage score and radiograph score) [3, 8]: No significant protection
- radiographic bone resorption / joint pathology of hind paws [3]: suppression of joint pathology
- radiographic bone resorption / joint pathology of hind paws ([3]; listed as Methogtrexate): markedly protect from bone resorption
- plasma level of IL-1β (IL-1β; [7]): No significant effect
- plasma level of IL-1β (IL-1β; methotrexate 0.15 mg/kg orally): significantly lower
- development of collagen-induced arthritis (percent of arthritic rats) ([5]; methotrexate 0.015 mg/kg orally from day 25, alone): did not significantly altered the development of collagen-induced arthritis
- arthritis index [5, 7]: Neither M40403 (2 mg/kg) nor methotrexate. (0.015 mg/kg) treatment alone attenuated the arthritis index
- development of collagen-induced arthritis (percent of arthritic rats) ([5]; methotrexate 0.15 mg/kg orally from day 25, alone): significant reduction in the percent of arthritic rats
- arthritis index ([5]; methotrexate 0.15 mg/kg orally, between days 26 and 35 after immunization): significant suppression (P<0.01)
